Data as given in patent publication US7256206B2, “Bicyclic compounds and compositions” (IRM LLC, priority 2003, dated 2007).

What was measured:
circulating lymphocytes = test: Measurement of blood lymphocyte depletion; format: in vivo, Mice (C57bl/6 male); conditions: mice, blood collected 18 hours after administration, dose for 50% blood lymphocyte depletion; for ED50: Mus musculus, Lymphocyte, ip, 18 h
Protocol: (§1) C. In Vivo: Screening Assays for Measurement of Blood Lymphocyte Depletion and Assessment of Heart Effect
Measurement of circulating lymphocytes: Compounds are dissolved in DMSO and further diluted with deionized water. Mice (C57bl/6 male, 6–10 week-old) are administered 20 μg of compound (diluted in 200 μl water, 4% DMSO) via intra-peritoneal (IP) injection under short isoflurane anesthesia. Water (200 μl), 4% DMSO, and FTY720 (10 μg) are included as negative and positive controls, respectively.
Blood is collected from the retro-orbital sinus 18 hours after drug administration under short isoflurane anesthesia. Whole blood samples are subjected to hematology analysis. Peripheral lymphocyte counts are determined using an automated analyzer. Subpopulations of peripheral blood lymphocytes are stained by fluorochrome-conjugated specific antibodies and analyzed using a fluorescent activating cell sorter (Facscalibur). Two mice are used to assess the lymphocyte depletion activity of each compound screened. The result is an ED50, which is defined as the effective dose required displaying 50% of blood lymphocyte depletion.

human EDG-1 = target: T1, human EDG-1 (Homo sapiens, UniProt P21453); test: EDG-1 (S1P1) GTP [γ-35S] binding assay (SPA); format: biochemical; conditions: for EC50: GTP [γ-35S] binding, CHO membranes
T1 construct: c-myc (N); expressed in transfected cells; membrane protein suspensions
T1 sequence (P21453 whole entry): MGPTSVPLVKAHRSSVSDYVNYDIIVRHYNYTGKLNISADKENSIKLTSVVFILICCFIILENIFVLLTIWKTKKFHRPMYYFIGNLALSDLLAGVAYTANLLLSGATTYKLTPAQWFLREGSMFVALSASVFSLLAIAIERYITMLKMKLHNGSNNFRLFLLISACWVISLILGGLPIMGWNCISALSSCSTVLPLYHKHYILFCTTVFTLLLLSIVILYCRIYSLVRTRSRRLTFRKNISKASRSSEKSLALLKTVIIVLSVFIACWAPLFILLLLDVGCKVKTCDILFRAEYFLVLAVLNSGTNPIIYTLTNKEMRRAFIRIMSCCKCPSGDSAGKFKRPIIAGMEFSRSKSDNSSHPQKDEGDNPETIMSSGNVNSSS
Protocol: (§2) A. In vitro: a Scintillation Proximity Assay (SPA) for Measuring GTP [γ-^35S] Binding to Membranes Prepared from CHO Cells Expressing Human EDG/S1P Receptors
EDG-1 (S1P1) GTP [γ-^35S] binding assay: Membrane protein suspensions are prepared from CHO cell clones stably expressing a human EDG-1 N-terminal c-myc tag. Solutions of test compounds ranging from 10 mM to 0.01 mM are prepared in DMSO/50 mM HCl and then diluted into assay buffer (20 mM HEPES, pH7.4, 100 mM NaCl, 10 mM MgCl2, 0.1% fat free BSA). Assay buffer containing […] is mixed with wheat germ agglutinin-coated SPA-beads (1 mg/well) followed by the addition of human EDG-1 membrane protein suspension (10 μg/well) and test compound. The bead/membrane/compound assay components are then mixed for 10–15 minutes on a shaker at room temperature. GTP [γ-^35S] (200 pM) and bead/membrane/compound assay mixture are added to individual wells of a 96 well Optiplate™ (final volume 225 μl/well), sealed and incubated at room temperature for 110 to 120 minutes under constant shaking. After centrifugation (2000 rpm, 10 minutes) luminescence is measured with a TopCount™ instrument.
(§3) EC50 values are obtained by fitting the GTP [γ-^35S] binding curves (raw data) with the dose response curve-fitting tool of ORIGIN V. 6.1. Basal binding (no compound) and the highest stimulation of GTP [γ-^35S] binding achieved by an agonist are used as the fitting range. Seven different concentrations are used to generate a concentration response curve (using two or three data points per concentration).

EDG-5 = target: T2, EDG-5 (Homo sapiens, UniProt O95136); test: EDG-5 GTP [γ-35S] binding assay; format: biochemical; conditions: CHO membranes
T2 construct: c-myc (print says 'tagged or untagged'; not resolved for this receptor) (C); expressed in transfected cells; membranes
T2 sequence (O95136 whole entry): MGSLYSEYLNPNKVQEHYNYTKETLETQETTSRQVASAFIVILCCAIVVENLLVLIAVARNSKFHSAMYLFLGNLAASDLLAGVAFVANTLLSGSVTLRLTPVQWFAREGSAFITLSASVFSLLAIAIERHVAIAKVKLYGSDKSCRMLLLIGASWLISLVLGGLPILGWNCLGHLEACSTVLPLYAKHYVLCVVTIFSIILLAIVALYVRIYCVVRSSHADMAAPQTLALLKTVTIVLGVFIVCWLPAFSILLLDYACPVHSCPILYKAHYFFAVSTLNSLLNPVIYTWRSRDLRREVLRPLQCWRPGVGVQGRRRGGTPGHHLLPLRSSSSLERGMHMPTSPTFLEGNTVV
Excerpt: as §2, §3
(§4) Concentrations of EDG receptor expressing membranes range between 13–19 μg per well.

EDG-6 = target: T3, EDG-6 (Homo sapiens, UniProt O95977); test: EDG-6 GTP [γ-35S] binding assay; format: biochemical; conditions: CHO membranes
T3 construct: c-myc (print says 'tagged or untagged'; not resolved for this receptor) (C); expressed in transfected cells; membranes
T3 sequence (O95977 1-384): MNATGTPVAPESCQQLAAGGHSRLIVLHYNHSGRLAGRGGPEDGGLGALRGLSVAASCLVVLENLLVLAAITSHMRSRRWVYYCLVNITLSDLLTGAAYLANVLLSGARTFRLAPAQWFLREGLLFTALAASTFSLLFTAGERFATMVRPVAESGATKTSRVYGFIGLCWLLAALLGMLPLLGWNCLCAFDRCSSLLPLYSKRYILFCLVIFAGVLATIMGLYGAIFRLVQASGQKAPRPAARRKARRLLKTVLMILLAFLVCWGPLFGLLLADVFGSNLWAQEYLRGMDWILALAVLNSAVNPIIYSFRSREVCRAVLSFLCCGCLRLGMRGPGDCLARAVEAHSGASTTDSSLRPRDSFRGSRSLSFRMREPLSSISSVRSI
Excerpt: as §2, §3, §4

EDG-8 = target: T4, EDG-8 (Homo sapiens, UniProt Q9H228); test: EDG-8 GTP [γ-35S] binding assay (RH7777 membranes); format: biochemical
T4 construct: c-myc (print says 'tagged or untagged'; not resolved for this receptor) (C); expressed in transfected cells; membranes
T4 sequence (Q9H228 whole entry): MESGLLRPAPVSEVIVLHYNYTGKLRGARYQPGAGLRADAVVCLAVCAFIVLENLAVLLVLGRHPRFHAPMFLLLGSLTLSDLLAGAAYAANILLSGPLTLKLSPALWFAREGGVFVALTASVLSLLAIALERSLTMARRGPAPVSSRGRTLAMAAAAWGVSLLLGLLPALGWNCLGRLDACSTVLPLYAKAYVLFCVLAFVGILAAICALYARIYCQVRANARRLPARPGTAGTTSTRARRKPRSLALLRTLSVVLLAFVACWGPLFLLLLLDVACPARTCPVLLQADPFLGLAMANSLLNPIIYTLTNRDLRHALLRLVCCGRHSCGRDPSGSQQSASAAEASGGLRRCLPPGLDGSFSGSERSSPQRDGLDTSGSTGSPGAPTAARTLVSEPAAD

[1] = Assessment of heart effect (AnonyMOUSE ECG screening); format: in vivo, mice (C57bl/6 male); conditions: ECG before and after compound, 90 μg IP
Protocol: as §1
Assessment of Heart Effect: The effects of compounds on cardiac function are monitored using the AnonyMOUSE ECG screening system. Electrocardiograms are recorded in conscious mice (C57bl/6 male, 6–10 week-old) before and after compound administration. ECG signals are then processed and analyzed using the e-MOUSE software. 90 μg of compound further diluted in 200 μl water, 15% DMSO are injected IP. Four mice are used to assess the heart effect of each compound.

EDG-3 = target: T5, EDG-3 (Homo sapiens, UniProt Q99500); test: EDG-3 GTP [γ-35S] binding assay; format: biochemical; conditions: CHO membranes
T5 construct: c-myc (print says 'tagged or untagged'; not resolved for this receptor) (C); expressed in transfected cells; membranes
T5 sequence (Q99500 whole entry): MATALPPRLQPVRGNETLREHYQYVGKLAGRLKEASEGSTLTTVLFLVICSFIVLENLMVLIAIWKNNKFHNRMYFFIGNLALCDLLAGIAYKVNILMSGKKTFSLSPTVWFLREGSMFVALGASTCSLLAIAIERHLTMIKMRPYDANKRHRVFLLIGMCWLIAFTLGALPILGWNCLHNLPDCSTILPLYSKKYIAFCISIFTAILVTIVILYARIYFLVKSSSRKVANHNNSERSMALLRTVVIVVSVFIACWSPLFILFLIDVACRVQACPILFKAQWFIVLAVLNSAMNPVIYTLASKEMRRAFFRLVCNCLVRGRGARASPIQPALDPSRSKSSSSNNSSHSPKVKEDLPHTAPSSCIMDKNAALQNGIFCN
Excerpt: as §2, §3, §4

selectivity for EDG-1 compared to EDG-3, EDG-5, EDG-6 and EDG-8 (human EDG-1; GTP [γ-35S] binding assays) | EC50 (human EDG-1) [µM] | EC50 (EDG-5) [µM] | EC50 (EDG-6) [µM] | EC50 (EDG-8) [µM] | EC50 (EDG-3) [µM] | SMILES | ED50 (circulating lymphocytes) [mg/kg] | Heart effect in conscious mice [1] | Lymphocyte Depletion ED50 (circulating lymphocytes; IP)
at least 1000 fold | 0.00115 | > 10 | > 10 | > 10 | > 10 | C/C(=N\OCc1ccc(-c2cccs2)cc1)c1ccc(CCC(N)(CO)COP(=O)(O)O)cc1 (stereo not drawn) [Compound 10, phosphoric acid mono-(2-amino-2-hydroxymethyl-4-{4-[1-(4-thiophen-2-yl-benzyloxy-imino)-ethyl]-phenyl}-butyl)ester] | ~0.2 | clean | –
– | 0.0157 | > 10 | 1.24 | 0.0058 | 0.0035 | C/C(=N\OCc1ccc(-c2cccc(C(F)(F)F)c2)cc1)c1ccc(CCC(N)(CO)COP(=O)(O)O)cc1 (stereo not drawn) | < 1 | clean | –
– | 0.00079 | > 10 | 4.4 | > 10 | > 10 | C/C(=N\OCc1ccc(-c2ccsc2)cc1)c1ccc(CCC(N)(CO)COP(=O)(O)O)cc1 (stereo not drawn) [Compound 9] | 0.08 | clean | ED50 ~0.08 mg/kg
– | 0.00086 | > 10 | 0.168 | > 10 | > 10 | C/C(=N\OCc1ccc(-c2ccccc2)cc1)c1ccc(CCC(N)(CO)COP(=O)(O)O)cc1 (stereo not drawn) | ~0.1 | clean | –
